Assay results: paper PMC12383022, “Discovery of a Novel Antimicrobial Peptide from Paenibacillus sp. Na14 with Potent Activity Against Gram-Negative Bacteria and Genomic Insights into Its Biosynthetic Pathway” (Antibiotics, 2025)
Like-named read-outs stand apart in the source and are kept apart here. Where no end group is shown, it is not given here.

Experiments:
[1] = system: K. pneumoniae TISTR 1383; details: agar well diffusion vs untreated control, mean ± SD, three independent experiments
Description: (§3) The purified Na14 AMP was prepared at a concentration of 10× MIC. Thermal stability was assessed by incubating the peptide at 30 °C, 50 °C, 70 °C, and 90 °C for 3 h. pH stability was evaluated by adjusting the peptide solution to pH 3, 5, 7, 9, and 11 using 1 N HCl or 1 N NaOH, followed by incubation at 37 °C for 3 h and subsequent neutralization to the original pH. […] The residual antimicrobial activity of each treatment condition was determined using an agar well diffusion assay against E. coli TISTR 887, P. aeruginosa TISTR 357, and K. pneumoniae TISTR 1383 to cross-validate efficacy across multiple pathogens. The untreated peptide served as a control. Statistical significance was analyzed using one-way ANOVA, with comparisons to the control group considered significant at p-value < 0.05. The results are presented as the percentage of residual antimicrobial activity.

[2] = system: E. coli TISTR 887; test: Antimicrobial activity of purification fractions (arbitrary units, two-fold dilutions, agar well diffusion); type: cell-based, Escherichia coli; details: against E. coli TISTR 887
Description: Single colonies of the Na14 isolate were resuspended in 0.9% NaCl solution, and the cell suspension was adjusted to an OD of 0.35 at 625 nm. A 2% aliquot of this suspension was inoculated into 196 mL of LB broth and incubated at 37 °C for 24 h. The CFS was collected by centrifugation at 10,000× g for 15 min at 4 °C. Bioactive compounds were then precipitated using stepwise ammonium sulfate precipitation at 25%, 50%, and 75% saturation levels. The active compounds were purified using cation exchange chromatography (CIEX) followed by reversed-phase chromatography (RPC), as described in our previous study. The purified compounds were concentrated using a refrigerated speed vacuum concentrator. The dried samples were reconstituted in deionized water and subjected to two-fold serial dilutions. An aliquot (100 µL) of each dilution was used to evaluate antimicrobial activity using the agar well diffusion method, employing E. coli TISTR 887 as the tested bacteria. The purification efficiency was assessed by calculating antimicrobial activity at each purification stage using the following equation [49]. Antimicrobial activity (arbitrary unit/mL; AU/mL)= 2^n × 1000/V where n represents the reciprocal of the highest two-fold dilution that produces a visible inhibition zone, and V denotes the volume of the sample in µL.

[3] = system: K. pneumoniae TISTR 1383; type: cell-based, Klebsiella pneumoniae; details: TISTR 1383, 24 h
Description: (§1) A bacterial suspension was prepared by adjusting its turbidity at OD 625 nm to 0.1 and subsequently made a 20-fold dilution using Cation-Adjusted Mueller–Hinton broth (CAHMB) as a diluent. […] The diluted cell suspension (10 µL) was added to each well, and the plates were incubated at 37 °C for 24 h. The CAMHB alone was used as a negative control, while CAMHB containing colistin or vancomycin served as a positive control.

[4] = system: E. coli TISTR 887; type: cell-based, Escherichia coli; details: TISTR 887, 24 h
Description: as §1

[5] = system: P. aeruginosa TISTR 357; type: cell-based, Pseudomonas aeruginosa; details: TISTR 357, 24 h
Description: as §1

[6] = system: P. aeruginosa TISTR 357; details: agar well diffusion vs untreated control, mean ± SD, three independent experiments
Description: as §3

[7] = system: E. coli TISTR 887, P. aeruginosa TISTR 357, K. pneumoniae TISTR 1383; test: Time–kill kinetic assay, statement for all tested strains; type: cell-based; details: peptide at 1× MIC
Description: (§2) The cultures were diluted 20-fold using CAMHB. […] The diluted bacterial suspension (10 μL) was mixed into each well before incubating the plates at 37 °C. At predetermined time points, 100 μL of either diluted or undiluted samples from each well were plated on MH agar and incubated at 37 °C for 24 h. Bacterial viability was assessed by colony counting and expressed as log CFU/mL [56].

[8] = system: K. pneumoniae TISTR 1383; test: Time–kill assay; type: cell-based, Klebsiella pneumoniae
Description: as §2

[9] = system: P. aeruginosa TISTR 357; test: Time–kill assay; type: cell-based, Pseudomonas aeruginosa
Description: as §2

[10] = system: E. coli TISTR 887; test: Time–kill assay; type: cell-based, Escherichia coli
Description: as §2

[11] = system: E. coli TISTR 887; details: agar well diffusion vs untreated control, mean ± SD, three independent experiments
Description: as §3

[12] = system: E. coli TISTR 887; test: SDS-PAGE gel overlay inhibition assay; type: cell-based, Escherichia coli; details: 15% SDS-PAGE gel overlaid with soft agar containing E. coli TISTR 887; at the position of the peptide band
Description: The peptides ([…]) were subjected to analysis using a 15% sodium dodecyl sulfate-polyacrylamide gel electrophoresis (SDS-PAGE). The gel was electrophoresed at a constant voltage of 100 V. One half of the gel was stained using Coomassie brilliant blue G-250 to visualize protein bands, with a molecular weight marker included to facilitate band position comparison. The remaining half was fixed in a solution containing 5% acetic acid and 25% methanol for 30 min, followed by a 3 h wash with distilled water. Subsequently, 18 mL of soft MH agar, including E. coli TISTR 887, was overlaid onto the gel to assess antimicrobial activity by observing inhibition zones after incubation at 37 °C for 24 h.

[13] = system: MRSA Strain 2468; test: microbe, parasite or virus in culture; type: cell-based, Staphylococcus aureus; details: Strain 2468, 24 h
Description: as §1

[14] = system: S. aureus TISTR 517; test: microbe, parasite or virus in culture; type: cell-based, Staphylococcus aureus; details: TISTR 517, 24 h
Description: as §1

[15] = system: P. aeruginosa LMG6395; details: cited from earlier work
[16] = system: K. pneumoniae LMG20218; details: cited from earlier work
[17] = system: MRSA ATCC 15975; details: cited from earlier work
[18] = system: MRSA; details: 10× MIC; cited from earlier work
[19] = system: E. coli ATCC 25922; details: cited from earlier work
[20] = peptide at 10× MIC adjusted to pH 3 (1 N HCl or 1 N NaOH), 37 °C, 3 h, then neutralized
[21] = peptide at 10× MIC adjusted to pH 5, 37 °C, 3 h, then neutralized
[22] = peptide at 10× MIC adjusted to pH 7, 37 °C, 3 h, then neutralized
[23] = peptide at 10× MIC adjusted to pH 9, 37 °C, 3 h, then neutralized
[24] = peptide at 10× MIC adjusted to pH 11, 37 °C, 3 h, then neutralized
[25] = peptide at 10× MIC incubated at 30 °C for 3 h
[26] = peptide at 10× MIC incubated at 50 °C for 3 h
[27] = peptide at 10× MIC incubated at 70 °C for 3 h
[28] = peptide at 10× MIC incubated at 90 °C for 3 h
[29] = peptide at 0.5× MIC, growth resumed thereafter until 24 h
[30] = peptide at 1× MIC, CAMHB, 37 °C, LOD 10 CFU/mL
[31] = peptide at 2× MIC, CAMHB, 37 °C, LOD 10 CFU/mL

LALLVVVKVLKYVV [Na14 peptide]
Residual Antimicrobial Activity, K. pneumoniae TISTR 1383 [1, 20]: 100.43 ± 0.37%
Residual Antimicrobial Activity, K. pneumoniae TISTR 1383 [1, 21]: 99.14 ± 1.35%
Residual Antimicrobial Activity, K. pneumoniae TISTR 1383 [1, 22]: 98.06 ± 2.34%
Residual Antimicrobial Activity, K. pneumoniae TISTR 1383 [1, 23]: 97.62 ± 2.08%
Residual Antimicrobial Activity, K. pneumoniae TISTR 1383 [1, 24]: 99.57 ± 2.08%
Residual Antimicrobial Activity, K. pneumoniae TISTR 1383 [1, 25]: 100.89 ± 0.39%
Residual Antimicrobial Activity, K. pneumoniae TISTR 1383 [1, 26]: 98.21 ± 4.09%
Residual Antimicrobial Activity, K. pneumoniae TISTR 1383 [1, 27]: 98.66 ± 4.07%
Residual Antimicrobial Activity, K. pneumoniae TISTR 1383 [1, 28]: 99.11 ± 1.39%
Specific Activity ([2]; purification balance sheet): 835.99 AU/mg
Arbitrary Activity ([2]; two-fold serial dilutions, 100 µL, agar well diffusion, AU/mL = 2^n × 1000/V): 320 AU/mL
MBC, K. pneumoniae TISTR 1383 [3]: 4 µg/mL
MIC, K. pneumoniae TISTR 1383 [3]: 4 µg/mL
MBC, E. coli TISTR 887 [4]: 2 µg/mL
MIC, E. coli TISTR 887 [4]: 2 µg/mL
MBC, P. aeruginosa TISTR 357 [5]: 2 µg/mL
MIC, P. aeruginosa TISTR 357 [5]: 2 µg/mL
Residual Antimicrobial Activity, P. aeruginosa TISTR 357 [6, 20]: 99.58 ± 0.74%
Residual Antimicrobial Activity, P. aeruginosa TISTR 357 [6, 21]: 99.36 ± 1.69%
Residual Antimicrobial Activity, P. aeruginosa TISTR 357 [6, 22]: 99.36 ± 3.18%
Residual Antimicrobial Activity, P. aeruginosa TISTR 357 [6, 23]: 98.73 ± 2.30%
Residual Antimicrobial Activity, P. aeruginosa TISTR 357 [6, 24]: 98.30 ± 2.24%
Residual Antimicrobial Activity, P. aeruginosa TISTR 357 [6, 25]: 98.08 ± 1.11%
Residual Antimicrobial Activity, P. aeruginosa TISTR 357 [6, 26]: 98.51 ± 0.37%
Residual Antimicrobial Activity, P. aeruginosa TISTR 357 [6, 27]: 98.72 ± 0.64%
Residual Antimicrobial Activity, P. aeruginosa TISTR 357 [6, 28]: 97.22 ± 1.62%
reduction of bacterial counts [7]: more than 3 log units
duration of growth inhibition, K. pneumoniae TISTR 1383 [8, 29]: up to 6 h
time at which bacteria were eliminated, K. pneumoniae TISTR 1383 [8, 30]: 9 h
time of complete eradication, K. pneumoniae TISTR 1383 [8, 31]: 6 h
duration of temporary growth suppression, P. aeruginosa TISTR 357 [9, 29]: 3 h
time at which bacteria were eliminated, P. aeruginosa TISTR 357 [9, 30]: 6 h
time of complete eradication, P. aeruginosa TISTR 357 [9, 31]: 3 h
duration of temporary growth suppression, E. coli TISTR 887 [10, 29]: 3 h
time at which bacteria were eliminated, E. coli TISTR 887 [10, 30]: 12 h
time of complete eradication, E. coli TISTR 887 [10, 31]: 6 h
Residual Antimicrobial Activity, E. coli TISTR 887 [11, 20]: 100.64 ± 2.30%
Residual Antimicrobial Activity, E. coli TISTR 887 [11, 21]: 100.85 ± 1.95%
Residual Antimicrobial Activity, E. coli TISTR 887 [11, 22]: 99.36 ± 2.93%
Residual Antimicrobial Activity, E. coli TISTR 887 [11, 23]: 98.72 ± 1.28%
Residual Antimicrobial Activity, E. coli TISTR 887 [11, 24]: 98.51 ± 1.33%
Residual Antimicrobial Activity, E. coli TISTR 887 [11, 25]: 98.24 ± 1.67%
Residual Antimicrobial Activity, E. coli TISTR 887 [11, 26]: 99.12 ± 1.02%
Residual Antimicrobial Activity, E. coli TISTR 887 [11, 27]: 98.89 ± 2.03%
Residual Antimicrobial Activity, E. coli TISTR 887 [11, 28]: 98.46 ± 1.55%
gel overlay inhibition of E. coli TISTR 887 [12]: An inhibition zone was observed
MBC, MRSA strain 2468 [13]: >128 µg/mL
MIC, MRSA strain 2468 [13]: >128 µg/mL
MBC, S. aureus TISTR 517 [14]: >128 µg/mL
MIC, S. aureus TISTR 517 [14]: >128 µg/mL

brevibacillin 2V
MIC, P. aeruginosa LMG6395 [15]: 64 µg/mL
MIC, K. pneumoniae LMG20218 [16]: 32 µg/mL
MIC, MRSA ATCC 15975 [17]: 2 µg/mL
time to complete killing of MRSA [18]: ≤ 6 h
MIC, E. coli ATCC 25922 [19]: 16 µg/mL
